Read-outs that look alike come from different tables or passages of the source.
How the values were obtained:
Type in all cases: cell-based
BCL-XL = molecular target: T1, BCL-XL (Homo sapiens, UniProt Q07817); assay: Bcl-xL ELISA degradation in MOLT-4 cells, 6 h; conditions: for DC50: read-out: Bcl-xL ELISA in MOLT-4 degradation 6 h: Mean external-Abs DC50
T1 construct: endogenous in cells; host or cells: MOLT-4
Protocol: The letter codes for BCL-XL DC50 include: A (<0.01 μM); B (0.01-0.1 μM); C (>[…]); D (>0.5-1.0 μM); and E (>1.0 μM). The letter codes for Dmax % include A (>75%); B (50 to 75%); C (<50%).

MOLT-4 cells = assay: CTG (CellTiter-Glo) cell viability assay, MOLT-4; conditions: 3 day incubation, read-out: CTG Cell Viability Assay - MOLT-4 3 day: Average external-IC50
How it was run: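 10,000 cells/well; 9 doses, 1:3 from 10 μM top; 0.2% DMSO; 3 d, 37 °C, 5% CO2; CTG luminescence; IC50 via 3-parameter logistic fit. Letter bins differ: Caki-2 C/D cut at 10.0 μM, MOLT-4 at 3.0 μM.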

Caki-2 cells = assay: CTG (CellTiter-Glo) cell viability assay, Caki-2; conditions: 3 day incubation, read-out: CTG Chempartner - Caki-2 3 day: Average external-IC50
Protocol: Compound-mediated viability effect on MOLT-4 and Caki-2 was quantitatively determined using the CellTiter-Glo® Luminescent Cell Viability Assay kit from Promega (Catalog number G7570) following manufacturer's recommended procedures. Briefly, MOLT-4 and Caki-2 cells were seeded into 384 well plates (Grenier Bio-One, Catalog number 781080) with a density of 10,000 cells per well. Compounds were then added to the assay plate with final top concentration of 10 μM and 1:3 dilution series with total of 9 doses. The final DMSO concentration is normalized to 0.2%. The assay plates were incubated at 37° C., for 3 days under 5% CO2. Then the assay plate was equilibrated at room temperature for 10 minutes. To determine cell viability, 30 uL CellTiter Glo reagent was added to each well and the assay plate was centrifuged at 1000 rpm for 30 second, incubated at room temperature for 10 min, and analyzed by detecting the luminescence using a multimode plate reader (EnVision 2105, PerkinElmer). The data was then analyzed by software Prism 7.0 from GraphPad and the dose response curves are fit using a three-parameter logistic equation to calculate IC50.
The letter codes for MOLT-4 IC50 include: A (<0.1 μM); B (0.1-1.0 μM); C (>1.0-3.0 μM); and D (>3.0 μM). The letter codes for Caki-2 IC50 include: A (<0.1 μM); B (0.1-1.0 μM); C (>1.0-10.0 μM); and D (>10.0 μM).

T1 sequence (Q07817 whole entry): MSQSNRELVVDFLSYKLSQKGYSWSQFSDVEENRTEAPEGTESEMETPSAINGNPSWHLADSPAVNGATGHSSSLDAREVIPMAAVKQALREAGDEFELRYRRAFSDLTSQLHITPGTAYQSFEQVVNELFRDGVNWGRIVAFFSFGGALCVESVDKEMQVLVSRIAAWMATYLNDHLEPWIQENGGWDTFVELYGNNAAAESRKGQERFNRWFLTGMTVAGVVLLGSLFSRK

Row | Dmax (BCL-XL) | DC50 (BCL-XL) | IC50 (MOLT-4 cells; Homo sapiens, MOLT-4, 72 h) | Bcl-xL ELISA in MOLT-4 degradation 6 h: Average Dmax % (BCL-XL) | IC50 (MOLT-4 cells) | Structure (SMILES) | IC50 (Caki-2 cells; Homo sapiens, 72 h) | IC50 (Caki-2 cells)
1 | > 75% | 100 to 500 nM | 100 to 1000 nM | – | – | Cc1ncsc1-c1ccc([C@H](C)NC(=O)[C@@H]2C[C@@H](O)CN2C(=O)[C@@H](NC(=O)c2ccc(N3CCC(S(=O)(=O)NC(=O)c4nc(N5CCc6cccc(C(=O)Nc7nc8ccccc8s7)c6C5)ccc4-c4cnn(CC5CCCCC5)c4C)CC3)cc2)C(C)(C)C)cc1 [I-303] | 1 to 10 µM | –
2 | > 75% | < 10 nM | 100 to 1000 nM | – | – | Cc1ncsc1-c1ccc([C@H](C)NC(=O)[C@@H]2C[C@@H](O)CN2C(=O)[C@@H](NC(=O)CCCS(=O)(=O)NC(=O)c2nc(N3CCc4cccc(C(=O)Nc5nc6ccccc6s5)c4C3)ccc2-c2cnn(CC3CCCCC3)c2C)C(C)(C)C)cc1 [I-304] | 1 to 10 µM | –
3 | > 75% | 10 to 100 nM | < 100 nM | – | – | Cc1ncsc1-c1ccc([C@H](C)NC(=O)[C@@H]2C[C@@H](O)CN2C(=O)[C@@H](NC(=O)CCCCc2nc(C3CCCN(C(=O)c4nc(N5CCc6cccc(C(=O)Nc7nc8ccccc8s7)c6C5)ccc4-c4cnn(CC5CCCCC5)c4C)C3)no2)C(C)(C)C)cc1 (stereo partly shown) [I-306] | 1 to 10 µM | –
4 | < 50% | > 1000 nM | 1000 to 3000 nM | – | – | Cc1ncsc1-c1ccc([C@H](C)NC(=O)[C@@H]2C[C@@H](O)CN2C(=O)[C@@H](NC(=O)CCCc2ccc(S(=O)(=O)NCc3nc(N4CCc5cccc(C(=O)Nc6nc7ccccc7s6)c5C4)ccc3-c3cnn(CC4CCCCC4)c3C)cc2)C(C)(C)C)cc1 [I-307] | > 10 µM | –
5 | > 75% | 100 to 500 nM | < 100 nM | – | – | Cc1ncsc1-c1ccc([C@H](C)NC(=O)[C@@H]2C[C@@H](O)CN2C(=O)[C@@H](NC(=O)C2CCN(C3CCN(S(=O)(=O)NC(=O)c4nc(N5CCc6cccc(C(=O)Nc7nc8ccccc8s7)c6C5)ccc4-c4cnn(CC5CCCCC5)c4C)CC3)CC2)C(C)(C)C)cc1 [I-308] | 1 to 10 µM | –
6 | 50 to 75% | 100 to 500 nM | 1000 to 3000 nM | – | – | Cc1ncsc1-c1ccc([C@H](C)NC(=O)[C@@H]2C[C@@H](O)CN2C(=O)[C@@H](NC(=O)CCCCCS(=O)(=O)NC(=O)c2nc(N3CCc4cccc(C(=O)Nc5nc6ccccc6s5)c4C3)ccc2-c2cccc(OC(C)C)c2C)C(C)(C)C)cc1 [I-309] | 1 to 10 µM | –
7 | > 75% | 10 to 100 nM | < 100 nM | – | – | Cc1ncsc1-c1ccc([C@H](C)NC(=O)[C@@H]2C[C@@H](O)CN2C(=O)[C@@H](NC(=O)C2CCN(c3ccc(S(=O)(=O)NC(=O)c4nc(N5CCCc6c5nnc(Nc5nc7ccccc7s5)c6C)ccc4-c4cnn(CC5CCCCC5)c4C)cc3)CC2)C(C)(C)C)cc1 [I-310] | > 10 µM | –
8 | > 75% | 100 to 500 nM | < 100 nM | – | – | Cc1ncsc1-c1ccc([C@H](C)NC(=O)[C@@H]2C[C@@H](O)CN2C(=O)[C@@H](NC(=O)CCS(=O)(=O)NC(=O)c2nc(N3CCc4cccc(C(=O)Nc5nc6ccccc6s5)c4C3)ccc2-c2cnn(CC3CCCCC3)c2C)C(C)(C)C)cc1 [I-311] | 1 to 10 µM | –
9 | > 75% | 10 to 100 nM | < 100 nM | – | – | Cc1ncsc1-c1ccc([C@H](C)NC(=O)[C@@H]2C[C@@H](O)CN2C(=O)[C@@H](NC(=O)CCCCCCS(=O)(=O)NC(=O)c2nc(N3CCc4cccc(C(=O)Nc5nc6ccccc6s5)c4C3)ccc2-c2cnn(CC3CCCCC3)c2C)C(C)(C)C)cc1 [I-312] | 1 to 10 µM | –
10 | < 50% | > 1000 nM | 100 to 1000 nM | – | – | Cc1ncsc1-c1ccc([C@H](C)NC(=O)[C@@H]2C[C@@H](O)CN2C(=O)[C@@H](NC(=O)C2CCC(O)(c3ccc(S(=O)(=O)NC(=O)c4nc(N5CCc6cccc(C(=O)Nc7nc8ccccc8s7)c6C5)ccc4-c4cnn(CC5CCCCC5)c4C)cc3)CC2)C(C)(C)C)cc1 (stereo partly shown) [I-314] | 1 to 10 µM | –
11 | > 75% | 10 to 100 nM | < 100 nM | – | – | Cc1ncsc1-c1ccc([C@H](C)NC(=O)[C@@H]2C[C@@H](O)CN2C(=O)[C@@H](NC(=O)CCCCCS(=O)(=O)NC(=O)c2nc(N3CCc4cccc(C(=O)Nc5nc6ccccc6s5)c4C3)ccc2-c2ccnc(OC(C)C)c2C)C(C)(C)C)cc1 [I-315] | > 10 µM | –
12 | 50 to 75% | 100 to 500 nM | 100 to 1000 nM | – | – | Cc1ncsc1-c1ccc([C@H](C)NC(=O)[C@@H]2C[C@@H](O)CN2C(=O)[C@@H](NC(=O)C2CCN(c3ccc(S(=O)(=O)NC(=O)c4nc(N5CCc6cccc(C(=O)Nc7nc8ccccc8s7)c6C5)ccc4-c4cnn(CC5CCCCC5)c4C)cc3CO)CC2)C(C)(C)C)cc1 [I-316] | > 10 µM | –
13 | > 75% | 10 to 100 nM | 100 to 1000 nM | – | – | Cc1ncsc1-c1ccc([C@H](C)NC(=O)[C@@H]2C[C@@H](O)CN2C(=O)[C@@H](NC(=O)CCCCS(=O)(=O)NC(=O)c2nc(N3CCc4cccc(C(=O)Nc5nc6ccccc6s5)c4C3)ccc2-c2cnn(CC3CCCCC3)c2C)C(C)(C)C)cc1 [I-317] | 1 to 10 µM | –
14 | > 75% | 10 to 100 nM | < 100 nM | – | – | Cc1ncsc1-c1ccc(CNC(=O)[C@@H]2C[C@@H](O)CN2C(=O)[C@@H](NC(=O)CCc2ccc(S(=O)(=O)NC(=O)c3nc(N4CCc5cccc(C(=O)Nc6nc7ccccc7s6)c5C4)ccc3-c3cnn(CC(C)C)c3C)cc2)C(C)(C)C)cc1 [I-318] | 1 to 10 µM | –
15 | 50 to 75% | > 1000 nM | > 3000 nM | – | – | C#Cc1ccc(CNC(=O)[C@@H]2C[C@@H](O)CN2C(=O)[C@@H](NC(=O)CCc2ccc(S(=O)(=O)NC(=O)c3nc(N4CCc5cccc(C(=O)Nc6nc7ccccc7s6)c5C4)ccc3-c3cnn(CC(C)C)c3C)cc2)C(C)(C)C)cc1 [I-319] | > 10 µM | –
16 | > 75% | 100 to 500 nM | 1000 to 3000 nM | – | – | Cc1ncsc1-c1ccc(CNC(=O)[C@@H]2C[C@@H](O)CN2C(=O)[C@@H](NC(=O)CCc2ccc(S(=O)(=O)NC(=O)c3nc(N4CCc5cccc(C(=O)Nc6nc7ccccc7s6)c5C4)ccc3-c3cnn(CC4CCCCC4)c3C)c(F)c2)C(C)(C)C)cc1 [I-320] | > 10 µM | –
17 | – | 10 to 100 nM | – | A (A (>75%)) | < 100 nM | Cc1ncsc1-c1ccc(CNC(=O)[C@@H]2C[C@@H](O)CN2C(=O)[C@@H](NC(=O)CCc2cccc(S(=O)(=O)NC(=O)c3nc(N4CCc5cccc(C(=O)Nc6nc7ccccc7s6)c5C4)ccc3-c3cnn(CC4CCCCC4)c3C)c2)C(C)(C)C)cc1 [I-321] | – | 1 to 10 µM
18 | 50 to 75% | 100 to 500 nM | 100 to 1000 nM | – | – | Cc1cc(C(C(=O)N2C[C@H](O)C[C@H]2C(=O)NCc2ccc(-c3scnc3C)cc2OCCN(C)C2CCN(C(=O)c3nc(N4CCc5cccc(C(=O)Nc6nc7ccccc7s6)c5C4)ccc3-c3cnn(CC4CCCCC4)c3C)CC2)C(C)C)on1 (stereo partly shown) [I-322] | 0.1 to 1 µM | –
19 | 50 to 75% | 100 to 500 nM | 100 to 1000 nM | – | – | Cc1ncsc1-c1ccc([C@H](C)NC(=O)[C@@H]2C[C@@H](O)CN2C(=O)[C@@H](NC(=O)C2CCN(c3ccc(S(=O)(=O)NC(=O)c4nc(N5CCc6cccc(C(=O)Nc7nc8ccccc8s7)c6C5)ccc4-c4cccc(N(C)C(C)C)c4C)cc3)CC2)C(C)(C)C)cc1 [I-323] | > 10 µM | –
20 | < 50% | > 1000 nM | > 3000 nM | – | – | Cc1ncsc1-c1ccc([C@H](C)NC(=O)[C@@H]2C[C@@H](O)CN2C(=O)[C@@H](NC(=O)C2CCN(c3ccc(S(=O)(=O)NCc4nc(N5CCc6cccc(C(=O)Nc7nc8ccccc8s7)c6C5)ccc4-c4cnn(CC5CCCCC5)c4C)cc3)CC2)C(C)(C)C)cc1 [I-324] | > 10 µM | –
21 | 50 to 75% | 100 to 500 nM | < 100 nM | – | – | Cc1ncsc1-c1ccc([C@H](C)NC(=O)[C@@H]2C[C@@H](O)CN2C(=O)[C@@H](NC(=O)c2ccc(NC3CCCN(S(=O)(=O)NC(=O)c4nc(N5CCc6cccc(C(=O)Nc7nc8ccccc8s7)c6C5)ccc4-c4cnn(CC5CCCCC5)c4C)C3)cc2)C(C)(C)C)cc1 (stereo partly shown) [I-325] | 1 to 10 µM | –
22 | < 50% | > 1000 nM | > 3000 nM | – | – | C#Cc1ccc(CNC(=O)[C@@H]2C[C@@H](O)CN2C(=O)[C@@H](NC(=O)CCc2ccc(S(=O)(=O)NC(=O)c3nc(N(C)c4cc(C)c(Nc5nc6ccccc6s5)nn4)ccc3-c3cnn(CC(C)C)c3C)cc2)C(C)(C)C)cc1 [I-326] | > 10 µM | –

From US20250197387A1, “BCL-XL DEGRADERS AND USES THEREOF” (Kymera Therapeutics, Inc., priority 2021, published 2025)
